Data reported in US20250114456A1, “ENHANCED IMMUNOTHERAPEUTIC METHOD COMPRISING COMBINED ADMINISTRATION OF PHOTODYNAMIC / RADIOTHERAPEUTIC COMPOUNDS AND IMMUNOTHERAPEUTIC AGENTS” (Theralase Technologies, Inc., priority 2023, published 2025).

Assays:
[1] = system: VISTA and PDL1/L2; conditions: multiple preclinical models; cited from earlier work
[2] = system: A549 human NSCLC cells; assay: ATP secretion quantification in supernatant, A549 cells, with radiation; format: cell-based; conditions: 4 hours, combined with radiation, supernatant 1 hour after, FIG. 8
Procedure: A549 human NSCLC cells were treated with RUVIDAR or RUTHERRIN for four (4) hours, then cells were treated with radiation or left untreated, and then incubated further for one (1) hour before collection of supernatant for ATP secretion quantification.

[3] = system: CD47 expression in A549 human Non-Small Cell Lung Cancer cells; assay: CD47 expression by flow cytometry, A549 cells, with or without radiation; format: cell-based; conditions: 4 hours, overnight incubation, FIG. 6
Procedure: A549 human Non-Small Cell Lung Cancer (“NSCLC”) cells were treated with RUVIDAR or RUTHERRIN for four (4) hours, then cells were treated with radiation or left untreated and then incubated further overnight before cell collection and analysis of CD47 expression by flow cytometry.

Structure (SMILES) | anti-tumor activity [1] | ATP release [2] | CD47 expression ([3]; radiation treatment added) | CD47 expression ([3]; without radiation treatment)
C[C@@H](O)[C@H](NC(=O)N[C@@H](CC(N)=O)c1nc([C@H](N)CO)no1)C(=O)O [CA-170] | demonstrated anti-tumor activity in multiple preclinical models |  |  | 
Cc1ccnc(-c2cc(C)ccn2)c1.Cc1ccnc(-c2cc(C)ccn2)c1.[Cl-].[Cl-].[Ru+2].c1csc(-c2ccc(-c3ccc(-c4nc5c6cccnc6c6ncccc6c5[nH]4)s3)s2)c1 [RUVIDAR, Ru(4,4′-dimethyl-2,2′-bipyridine)2(2-(2′,2″:5″,2′-terthiophene)-imidazo[4,5-f][1,10]phenanthroline) chloride] |  | significantly increased ATP release | significantly reduced expression | downregulated CD47 expression
